This is an account of results in patent US20210292296A1, “1,2,4-Trioxane compounds and compositions comprising the same for use in the treatment of COVID-19” (priority 2020, published 2021).

Data set [1] is described as follows: Aqueous stability of artemisinin in presence of additives (1H NMR). Type of data set: physicochemical. To be noted: 93° C. for 90 minutes. As to the method: Two solvents were tested, tap water and premade black coffee, and glucose (1 equivalent) was tested as a reductant. All mixtures were heated to 93° C. for 90 minutes in 10 mL glass vials open to the atmosphere. Halfway through heating, 1-2 mL of tap water was added to compensate for evaporation. Following heating, 2 mL ethyl acetate was added, and the biphasic solution was dried using a rotary evaporator with water bath at 40° C. The flask was further dried for three hours under high vacuum. All samples were dissolved in CDCl3 containing 0.5 equivalents of an internal standard (1,2,4,5-tetramethylbenzene) and ^1H NMR performed.

Data set [2] concerns SARS-CoV-2. In words: Pretreatment screening, SARS-CoV-2 plaque numbers on Vero E6 cells. It is filed as cell-based.
For data set [3], the system named is SARS-CoV-2. The data set is described as follows: SARS-CoV-2 induced cytopathic effect (CPE) in Vero E6 cells, MTS method. To be noted: 72 h. Type of data set: cell-based. A general note: Damage to the host cells serves as the signal in cytopathic effect assays.

Turning to `C[C@@H]1CC[C@H]2[C@@H](C)C(=O)O[C@@H]3O[C@@]4(C)CC[C@@H]1[C@]32OO4` [artemisinin], the loss of artemisinin in data set [1] (premade black coffee + glucose (1 equivalent)) worked out at 19%; in data set [1] (tap water + glucose (1 equivalent)) it was 32%. For the same compound, the degradation of artemisinin in data set [1] (premade black coffee) is reported as 17%. Besides, the “# of Plaques” value in data set [2] (pretreatment 15 min, dilution 100) was 78; in data set [2] (pretreatment 15 min, dilution 1,000), 104; in data set [2] (pretreatment 15 min, dilution 10,000) it was 109; in data set [2] (pretreatment 30 min, dilution 100) it was 88; in data set [2] (pretreatment 30 min, dilution 1,000), 100; in data set [2] (pretreatment 30 min, dilution 10,000) it was 102. Further, the “# of Plaques” value in data set [2] (pretreatment 60 min, dilution 100) was determined as 96; in data set [2] (pretreatment 60 min, dilution 1,000), 120; in data set [2] (pretreatment 60 min, dilution 10,000), 100; in data set [2] (pretreatment 120 min, dilution 100), 106. Also, the “plaques observed divided by average of negative control multiplied by 100” value (shortened to “plaques observed divided by average”) in data set [2] (pretreatment 15 min, sample 0.22 μg/mL) came out at 95.63; in data set [2] (pretreatment 15 min, sample 2.2 μg/mL), 84.06; in data set [2] (pretreatment 15 min, sample 22 μg/mL), 80.21; in data set [2] (pretreatment 15 min, sample 220 μg/mL), 60.15; in data set [2] (pretreatment 30 min, sample 0.22 μg/mL), 104.88; in data set [2] (pretreatment 30 min, sample 2.2 μg/mL), 78.66. Moreover, the “plaques observed divided by average” value came out at 78.66 in data set [2] (pretreatment 30 min, sample 22 μg/mL); 67.87 in data set [2] (pretreatment 30 min, sample 220 μg/mL); 95.63 in data set [2] (pretreatment 60 min, sample 0.22 μg/mL); 77.12 in data set [2] (pretreatment 60 min, sample 2.2 μg/mL); 92.54 in data set [2] (pretreatment 60 min, sample 22 μg/mL); 74.04 in data set [2] (pretreatment 60 min, sample 220 μg/mL). The “plaques observed divided by average” value worked out at 103.34 in data set [2] (pretreatment 120 min, sample 0.22 μg/mL); 95.63 in data set [2] (pretreatment 120 min, sample 2.2 μg/mL); 103.34 in data set [2] (pretreatment 120 min, sample 22 μg/mL); 81.75 in data set [2] (pretreatment 120 min, sample 220 μg/mL).
Take `C[C@H]1[C@H](OC(=O)CCC(=O)O)O[C@@H]2O[C@@]3(C)CC[C@H]4[C@H](C)CC[C@@H]1[C@@]24OO3` [artesunate]: in data set [3], the “EC50 (inhibition of virus-induced CPE)” value is given as “sufficiently low”.
